Activity calls are given as the source filed them. The calls are words filed in the database; no cut-off is given here.
What was measured:
[1] = biological target: T1, Extracellular calcium-sensing receptor (Rattus norvegicus) (UniProt P48442); assay: Agonist activity at rat brain CaSR expressed in CHO cells assessed as inositol phosphate production at 10 uM in presence of 3 mM extracellular Ca2+ by IP-one assay; type: functional, cell-based
T1 sequence (whole entry): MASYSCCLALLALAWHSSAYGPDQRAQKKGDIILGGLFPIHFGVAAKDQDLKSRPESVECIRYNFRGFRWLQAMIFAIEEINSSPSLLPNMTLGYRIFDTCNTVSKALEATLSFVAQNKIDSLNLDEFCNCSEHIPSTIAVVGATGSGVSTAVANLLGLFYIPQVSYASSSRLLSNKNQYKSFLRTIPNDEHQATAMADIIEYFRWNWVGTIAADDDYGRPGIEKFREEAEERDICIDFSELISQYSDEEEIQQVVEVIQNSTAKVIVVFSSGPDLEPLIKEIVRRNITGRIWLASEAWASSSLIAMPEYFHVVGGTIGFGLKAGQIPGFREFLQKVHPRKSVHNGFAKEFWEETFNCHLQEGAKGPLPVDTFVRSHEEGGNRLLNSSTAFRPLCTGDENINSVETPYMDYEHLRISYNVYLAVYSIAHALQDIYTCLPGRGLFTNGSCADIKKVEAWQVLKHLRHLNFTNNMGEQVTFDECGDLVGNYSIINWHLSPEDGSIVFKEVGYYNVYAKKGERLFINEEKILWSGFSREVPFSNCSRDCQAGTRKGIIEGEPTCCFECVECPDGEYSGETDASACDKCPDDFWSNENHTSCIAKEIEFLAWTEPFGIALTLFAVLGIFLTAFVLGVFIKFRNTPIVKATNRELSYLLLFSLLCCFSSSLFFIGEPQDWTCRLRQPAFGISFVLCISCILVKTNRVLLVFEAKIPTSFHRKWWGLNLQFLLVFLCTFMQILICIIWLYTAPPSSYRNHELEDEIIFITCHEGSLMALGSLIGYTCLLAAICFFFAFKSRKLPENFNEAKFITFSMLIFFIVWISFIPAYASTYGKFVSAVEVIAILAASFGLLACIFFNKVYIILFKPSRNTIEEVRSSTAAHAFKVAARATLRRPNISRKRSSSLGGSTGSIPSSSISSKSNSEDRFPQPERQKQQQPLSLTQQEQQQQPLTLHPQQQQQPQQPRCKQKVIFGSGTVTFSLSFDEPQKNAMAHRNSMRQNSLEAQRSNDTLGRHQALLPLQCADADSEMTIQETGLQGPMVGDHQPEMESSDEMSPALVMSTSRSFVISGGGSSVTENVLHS

[2] = biological target: T1, Extracellular calcium-sensing receptor (Rattus norvegicus); assay: Agonist activity at rat brain CaSR expressed in CHO cells assessed as inositol phosphate production at 3 uM in presence of 3 mM extracellular Ca2+ by IP-one assay; type: functional, cell-based
[3] = biological target: T1, Extracellular calcium-sensing receptor (Rattus norvegicus); assay: Agonist activity at rat brain CaSR expressed in CHO cells assessed as inositol phosphate production at 10 uM in presence of 2 mM extracellular Ca2+ by IP-one assay; type: functional, cell-based
[4] = biological target: T1, Extracellular calcium-sensing receptor (Rattus norvegicus); assay: Agonist activity at rat brain CaSR expressed in CHO cells assessed as inositol phosphate production at 3 uM in presence of 2 mM extracellular Ca2+ by IP-one assay; type: functional, cell-based
[5] = biological target: T2, Extracellular calcium-sensing receptor (Rattus norvegicus, UniProt P48442); assay: Agonist activity at rat brain CaSR expressed in CHO cells assessed as inositol phosphate production in presence of 3 mM extracellular Ca2+ by IP-one assay; type: functional, cell-based
T2 sequence (P48442 whole entry): T1 sequence (whole entry)

[6] = biological target: T3, G-protein coupled receptor family C group 6 member A (Mus musculus) (UniProt Q8K4Z6); assay: Inhibition of L-Ornithine-stimulated wild type mouse GPRC6A expressed in HEK293 cells coexpressing GalphaqG66D assessed as increase in [3H] inositol phosphate production at 10 uM incubated for 30 mins in presence of 2 mM extracellular Ca2+; type: functional, cell-based
T3 sequence (whole entry): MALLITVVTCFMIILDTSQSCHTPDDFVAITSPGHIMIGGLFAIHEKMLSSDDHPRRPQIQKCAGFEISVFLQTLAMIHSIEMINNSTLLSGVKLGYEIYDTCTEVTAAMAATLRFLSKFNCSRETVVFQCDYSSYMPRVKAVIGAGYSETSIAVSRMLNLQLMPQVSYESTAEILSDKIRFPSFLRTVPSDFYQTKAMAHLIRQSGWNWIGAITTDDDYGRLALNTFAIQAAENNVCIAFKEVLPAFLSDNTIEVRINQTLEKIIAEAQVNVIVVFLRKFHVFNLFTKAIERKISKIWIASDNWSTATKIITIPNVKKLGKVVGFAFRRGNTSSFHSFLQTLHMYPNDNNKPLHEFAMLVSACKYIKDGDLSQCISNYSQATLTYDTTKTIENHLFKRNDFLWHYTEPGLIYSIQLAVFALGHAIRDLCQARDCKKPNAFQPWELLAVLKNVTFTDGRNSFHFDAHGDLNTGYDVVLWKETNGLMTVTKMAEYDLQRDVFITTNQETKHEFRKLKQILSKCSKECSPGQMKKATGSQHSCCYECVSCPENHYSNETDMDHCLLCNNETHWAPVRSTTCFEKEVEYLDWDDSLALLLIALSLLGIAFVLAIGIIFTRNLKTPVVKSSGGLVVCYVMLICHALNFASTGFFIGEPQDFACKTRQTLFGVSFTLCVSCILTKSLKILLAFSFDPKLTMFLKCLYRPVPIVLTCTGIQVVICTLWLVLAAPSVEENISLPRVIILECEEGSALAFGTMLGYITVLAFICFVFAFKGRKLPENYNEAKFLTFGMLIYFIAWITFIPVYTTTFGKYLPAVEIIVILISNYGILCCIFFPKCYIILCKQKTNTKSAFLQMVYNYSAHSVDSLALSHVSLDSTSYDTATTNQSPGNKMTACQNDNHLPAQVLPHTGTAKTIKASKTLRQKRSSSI

HEK293 = assay: Effect on inositol phosphate production in HEK293 cells in absence of L-Ornithine; type: ADME, cell-based; conditions: human
[7] = biological target: T1, Extracellular calcium-sensing receptor (Rattus norvegicus); assay: Agonist activity at rat brain CaSR expressed in CHO cells assessed as inositol phosphate production at 0.1 uM in presence of 3 mM extracellular Ca2+ by IP-one assay; type: functional, cell-based

Row | SMILES | Activity [2] | Activity [3] | further results
1 | CC(NCc1cc2ccccc2[nH]1)c1ccccc1O (racemic) | 1% |  | Activity [1]: 1%
2 | Cc1ccc([C@@H](C)NCc2cc3ccccc3[nH]2)cc1 |  | 29% | 
3 | C[C@@H](NCc1cc2cccc([N+](=O)[O-])c2[nH]1)c1cccc2ccccc12 | 102% |  | Activity [7]: 70%; EC50 [5]: 20 nM; inhibition [6]: inactive; Activity (HEK293): Non-toxic
4 | COc1cccc([C@@H](C)NCc2cc3ccccc3[nH]2)c1 |  | 54% | 
5 | C[C@@H](NCc1cc2ccccc2[nH]1)c1ccc(F)cc1 | 30% |  | 
6 | C[C@@H](NCc1cc2cc([N+](=O)[O-])ccc2[nH]1)c1cccc2ccccc12 | 30% |  | 
7 | COc1ccc([C@@H](C)NCc2cc3ccccc3[nH]2)cc1 |  | 27% | 
8 | COc1cc2cc(CN[C@H](C)c3cccc4ccccc34)[nH]c2c(OC)c1OC | 40% |  | 
9 | CC(NCc1cc2ccccc2[nH]1)c1ccc(-c2ccccc2)cc1 (racemic) | 2% |  | Activity [1]: 1%
10 | CC(NCc1cc2ccccc2[nH]1)c1cccc(Br)c1 (racemic) | 49% |  | 
11 | C[C@@H](NCc1cc2ccccc2[nH]1)c1ccc(Br)cc1 | 26% |  | 
12 | C[C@@H](NCc1cc2cc(S(C)(=O)=O)ccc2[nH]1)c1cccc2ccccc12 | 54% |  | 
13 | COc1cc(OC)c2cc(CN[C@H](C)c3cccc4ccccc34)[nH]c2c1 |  | 94% | Activity [4]: 53%
14 | C[C@@H](NCc1cc2ccccc2[nH]1)c1ccccc1 |  | 34% | 
15 | C[C@@H](NCc1[nH]c2ccccc2c1-c1ccccc1)c1cccc2ccccc12 |  |  | Activity [1]: 55%
16 | C[C@@H](NC1CCCc2c1[nH]c1ccccc21)c1cccc2ccccc12 (mixture of isomers) |  |  | Activity [1]: 67%
17 | C[C@@H](NCc1cc2cc(OCc3ccccc3)ccc2[nH]1)c1cccc2ccccc12 | 23% |  | 
18 | C[C@@H](NCc1cc2cccc(-c3ccccc3)c2[nH]1)c1cccc2ccccc12 | 79% |  | 

Continued, in another order:

Row | Activity [2] | Activity [3] | SMILES | further results
19 | 55% |  | C[C@@H](NCc1cc2cccc(O)c2[nH]1)c1cccc2ccccc12 | Activity [1]: 83%
20 |  | 95% | COc1cccc2[nH]c(CN[C@H](C)c3cccc4ccccc34)cc12 | Activity [4]: 63%
21 | 85% |  | C[C@@H](NCc1cc2c(-c3ccccc3)cccc2[nH]1)c1cccc2ccccc12 | Activity [1]: 102%; EC50 [5]: 136 nM; inhibition [6]: inactive; Activity (HEK293): Non-toxic
22 |  | 69% | Cc1ccc2[nH]c(CN[C@H](C)c3cccc4ccccc34)cc2c1 | Activity [4]: 1%
23 | 83% | 103% | C[C@@H](NCc1cc2ccccc2[nH]1)c1cccc2ccccc12 [CALINDOL] | Activity [1]: 100%; EC50 [5]: 132 nM; inhibition [6]: 35%; Activity [4]: 73%
24 | 89% |  | CC(NCc1cc2ccccc2[nH]1)c1ccc(F)c2ccccc12 (racemic) | EC50 [5]: 131 nM; inhibition [6]: inactive; Activity (HEK293): Non-toxic
25 | 21% |  | C[C@@H](NCc1[nH]c2ccccc2c1Br)c1cccc2ccccc12 | 
26 | 92% |  | C[C@@H](NCc1cc2cc(O)ccc2[nH]1)c1cccc2ccccc12 | EC50 [5]: 112 nM
27 | 88% |  | C[C@@H](NCc1cc2c(O)cccc2[nH]1)c1cccc2ccccc12 | EC50 [5]: 102 nM
28 |  | 76% | COc1ccc2cc(CN[C@H](C)c3cccc4ccccc34)[nH]c2c1 | Activity [4]: 33%
29 |  | 74% | C[C@@H](NCc1cc2cc(F)ccc2[nH]1)c1cccc2ccccc12 | Activity [4]: 30%
